From patent US10252987B2, “Type of antiviral compound” (Institute of Medicinal Biotechnology, Chinese Academy of …, priority 2015, dated 2019)

Test system: HCV
Assay: anti-HCV activity assay in cell culture (HCV RNA by one-step quantitative RT-PCR)
Format: cell-based
Details: Hepatitis C virus, Huh7.5, 96 h, compound at 10 μmol/L; Huh7.5 cells infected with HCV virus particles; cultured 96 hrs; HCV RNA in cells vs virus control group; read-out: percent inhibition (%)
Protocol: The assay results of anti-HCV activity of the compound synthesized according to the present invention in cell culture are shown in Table 1, wherein the molecular weight is calculated by ChemBioDraw 12.0 software from the molecular structure of each compound.
100 μL Huh7.5 cells were seeded in 96-well cell culture plate to 1×10^5/mL density, cultured in an incubator at 37° C. under the condition of 5% CO2 and saturated humidity for 6 hrs. Huh7.5 cells were then infected by viral solution containing HCV virus particles, and solutions of compound of the present invention at a concentration of 10 μmol/L liquid were added respectively, cultured for further 96 hrs, and then total RNA was extracted from the cells. Amount of HCV RNA in cells was determined by one-step quantitative RT-PCR, and compared to RNA levels of the virus control group to calculate the inhibition rate of compounds on HCV.

| Structure (SMILES) | inhibition at 10 µM |
| --- | --- |
| CCCN1CCN(c2ccc(C#N)c(CN(CC)c3ccc(Sc4ccccc4)cc3)n2)CC1 [Compound 41, 2-((4-(phenylthio)phenyl)(ethyl)amino)methyl-6-(4-propylpiperazin-1-yl)-3-cyanopyridine] | 57% |
| Cc1cccc(NCc2nc(N(C)CCN(C)C)ccc2C#N)c1 [Compound 40, 6-((2-(dimethylamino)ethyl)(methyl)amino)-2-((3-methylphenyl)amino)methyl-3-cyanopyridine] | 84% |
| CC(C)c1ccc(N2CCN(Cc3cc(N4CCN(C)CC4)ccc3C#N)CC2)cc1 [VI-16, 4-(4-methylpiperazin-1-yl)-2-(4-(4-isopropylphenyl)piperazin-1-yl)methylbenzonitrile] | 68% |
| CN(C)CCN(C)c1ccc(C#N)c(CN2CCN(c3ccc(N4CCCC4)cc3)CC2)c1 [VI-22, 4-((2-(dimethylamino)ethyl)(methyl)amino)-2-(4-(4-(pyrrolidin-1-yl)phenyl)piperazin-1-yl)methylbenzonitrile] | 83% |
| COc1ccc(NCc2cc(N3CCNCC3)ccc2C#N)cc1 [Compound 2, 4-(piperazin-1-yl)-2-(p-methoxyphenylamino)methylbenzonitrile] | 89% |
| CN1CCN(c2ccc(C#N)c(CNc3ccccc3)c2)CC1 [Compound 4, 4-(4-methylpiperazin-1-yl)-2-(phenylamino)methylbenzonitrile] | 82% |
| CN1CCN(c2ccc(C#N)c(CN3CCN(c4ccc(C5CCCC5)cc4)CC3)c2)CC1 [VI-24, 4-(4-methylpiperazin-1-yl)-2-(4-(4-cyclopentylphenyl)piperazin-1-yl)methylbenzonitrile] | 59% |
| CCCN(Cc1cc(N2CCN(C)CC2)ccc1C#N)c1ccc(C(C)(C)C)cc1 [Compound 17, 4-(4-methylpiperazin-1-yl)-2-((p-tert-butylphenyl)(propyl)amino)methylbenzonitrile] | 96% |
| Cc1ccc(NCc2cc(N3CCNCC3)ccc2C#N)cc1 [Compound 1, 4-(piperazin-1-yl)-2-((p-methylphenylamino)methyl)benzonitrile] | 97% |
| N#Cc1ccc(NCCN2CCCCC2)nc1CNCCCc1ccc(C2CCCC2)cc1 [Compound 34, 2-(((4-cyclopentylphenyl)propylamino)methyl)-6-(2-(piperidin-1-yl)ethyl)amino-3-cyanopyridine] | 76% |
| Cc1ccc(NCc2cc(NCCN3CCCCC3)ccc2C#N)cc1 [Compound 28, 4-((2-(piperidin-1-yl)ethyl)amino)-2-(p-methylphenylamino)methylbenzonitrile] | 65% |
| C=CCN1CCN(c2ccc(C#N)c(CN(C)c3ccc(C(C)(C)C)cc3)c2)CC1 [Compound 19, 4-(4-allylpiperazin-1-yl)-2-((p-tert-butylphenyl)(methyl)amino)methylbenzonitrile] | 86% |
| COc1ccc(NCc2cc(NCN3CCCCC3)ccc2C#N)cc1 [Compound 31, 2-((4-methoxyphenyl)amino)methyl-4-(piperidin-1-ylmethyl)aminobenzonitrile] | 61% |
| CN1CCN(c2ccc(C#N)c(CNc3ccc(C4CCCC4)cc3)n2)CC1 [Compound 35, 6-(4-methylpiperazin-1-yl)-2-((4-cyclopentylphenylamino)methyl)-3-cyanopyridine] | 80% |
| Cc1ccc(N2CCN(Cc3cc(N4CCCC(N)C4)ccc3C#N)CC2)cc1 (centres unmarked) [VI-7, 4-(3-aminopiperidin-1-yl)-2-((4-(4-methylphenyl)piperazin-1-yl)methyl)benzonitrile] | 71% |

Same assay, conditions: compound at 10 μmol/L; Huh7.5 cells infected with HCV virus particles; cultured 96 hrs; HCV RNA in cells vs virus control group

| Structure (SMILES) | percent inhibition (%) |
| --- | --- |
| COc1cc(NCc2nc(N(C)CCN(C)C)ccc2C#N)cc(OC)c1 [Compound 39] | 75% |
| N#Cc1ccc(N2CCNCC2)cc1CN1CCN(c2ccccc2)CC1 [VI-8, 4-(piperazin-1-yl)-2-(4-(4-phenyl)piperazin-1-yl)methylbenzonitrile] | 82% |
